The results in this text go back to ChEMBL document CHEMBL1134068, “Thiazole analogues of the NSAID indomethacin as selective COX-2 inhibitors” (Bioorg Med Chem Lett, 2001).

Test [1] concerns the target T1, Prostaglandin G/H synthase 2 (Homo sapiens) (UniProt P35354).
T1 sequence (whole entry): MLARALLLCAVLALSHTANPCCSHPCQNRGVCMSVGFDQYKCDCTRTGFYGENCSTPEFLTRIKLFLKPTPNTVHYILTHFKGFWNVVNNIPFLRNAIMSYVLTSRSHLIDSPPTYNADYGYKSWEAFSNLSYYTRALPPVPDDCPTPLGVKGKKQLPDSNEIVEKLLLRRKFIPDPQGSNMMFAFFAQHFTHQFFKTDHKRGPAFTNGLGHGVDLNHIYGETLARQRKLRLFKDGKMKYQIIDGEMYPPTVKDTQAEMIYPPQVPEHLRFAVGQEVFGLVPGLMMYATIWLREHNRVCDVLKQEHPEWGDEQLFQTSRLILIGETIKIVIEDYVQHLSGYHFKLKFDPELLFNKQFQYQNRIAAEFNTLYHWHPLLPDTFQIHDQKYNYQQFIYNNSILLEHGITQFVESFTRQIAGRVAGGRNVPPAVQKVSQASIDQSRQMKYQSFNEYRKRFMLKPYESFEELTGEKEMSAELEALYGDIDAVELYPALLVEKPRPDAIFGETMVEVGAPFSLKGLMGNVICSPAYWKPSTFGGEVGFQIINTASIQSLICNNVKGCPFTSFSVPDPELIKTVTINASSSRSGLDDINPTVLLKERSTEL
Kind of test: Percent inhibition at 100 nM concentration against human recombinant Prostaglandin G/H synthase 2 cloned and expressed in baculovirus (Sf9).

For test [2], the target named is T2, Prostaglandin G/H synthase 1 (Homo sapiens, UniProt P23219). Kind of test: Percent inhibition at 10 uM concentration against human recombinant Prostaglandin G/H synthase 1 cloned and expressed in baculovirus.
T2 sequence (P23219 whole entry): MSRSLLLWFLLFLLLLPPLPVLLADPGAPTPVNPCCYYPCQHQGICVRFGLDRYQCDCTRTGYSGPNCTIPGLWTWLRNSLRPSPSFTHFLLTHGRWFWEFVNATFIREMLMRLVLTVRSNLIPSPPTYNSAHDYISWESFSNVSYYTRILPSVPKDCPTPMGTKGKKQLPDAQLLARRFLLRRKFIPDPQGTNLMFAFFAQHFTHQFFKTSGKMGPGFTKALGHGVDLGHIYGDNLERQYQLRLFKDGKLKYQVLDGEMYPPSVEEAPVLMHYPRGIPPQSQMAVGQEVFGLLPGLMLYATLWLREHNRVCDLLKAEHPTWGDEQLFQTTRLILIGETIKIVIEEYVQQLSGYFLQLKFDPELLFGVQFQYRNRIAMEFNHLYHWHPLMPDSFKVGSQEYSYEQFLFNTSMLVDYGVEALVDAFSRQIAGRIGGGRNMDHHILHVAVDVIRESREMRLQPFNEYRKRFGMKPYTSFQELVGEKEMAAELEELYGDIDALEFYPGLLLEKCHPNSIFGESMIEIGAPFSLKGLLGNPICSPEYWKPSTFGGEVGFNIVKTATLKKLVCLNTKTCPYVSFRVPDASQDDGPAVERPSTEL
The target of test [3] is T3, Prostaglandin G/H synthase 2 (Homo sapiens, UniProt P35354).
T3 sequence (P35354 whole entry): T1 sequence (whole entry)
Kind of test: biochemical.
Description: Inhibitory concentration against human recombinant Prostaglandin G/H synthase 2 cloned and expressed in baculovirus (Sf9)

In test [4] the target is T2, Prostaglandin G/H synthase 1. The test is described as follows: Inhibitory concentration against human recombinant Prostaglandin G/H synthase 1 cloned and expressed in baculovirus (Sf9).
The target is the same in test [5]. Kind of test: Percent inhibition at 10 uM concentration against human recombinant Prostaglandin G/H synthase 1 cloned and expressed in baculovirus (Sf9).

As usually defined, the inhibition is the change of the read-out against control, counted positive when it falls. On to `COc1ccc2c(c1)c(Cc1nc(-c3cccc([N+](=O)[O-])c3)cs1)c(C)n2C(=O)c1ccc(Cl)cc1`, for which the inhibition in test [1] was 85%; in test [2], 35%.

Consider `COc1ccc2c(c1)c(Cc1nc(-c3ccc4ccccc4c3)cs1)c(C)n2C(=O)c1ccc(Cl)cc1`, for which, in test [2], the inhibition came to 11%.

For `COc1ccc2c(c1)c(Cc1nc(-c3ccc(F)cc3F)cs1)c(C)n2C(=O)c1ccc(Cl)cc1`, the inhibition was 75% in test [1] and 12% in test [2].

For `COc1ccc2c(c1)c(Cc1nc(-c3csc4ccccc34)cs1)c(C)n2C(=O)c1ccc(Cl)cc1`, the inhibition in test [2] was 20%.

As a reminder, the IC50 is the concentration needed to halve the response being measured. Consider `COc1ccc2c(c1)c(Cc1nc(-c3ccc(Br)cc3)cs1)c(C)n2C(=O)c1ccc(Br)cc1`, for which half-maximal inhibition in test [3] (IC50) required 0.03 µM. The inhibition in test [2] stood at 3%.

As to `COc1ccc2c(c1)c(Cc1nc(-c3ccc(S(C)(=O)=O)cc3)cs1)c(C)n2C(=O)c1ccc(Cl)cc1`, the inhibition in test [1] turned out to be 33%; in test [2], 15%.

Turning to `COc1ccc2c(c1)c(Cc1csc(N)n1)c(C)n2C(=O)c1ccc(Cl)cc1`, the IC50 in test [3] worked out at 0.39 µM; in test [4], 15500 µM.

`COc1ccc2c(c1)c(Cc1nc(-c3ccc([N+](=O)[O-])cc3)cs1)c(C)n2C(=O)c1ccc(Br)cc1`: the IC50 in test [3] was found to be 0.007 µM. For the same compound, the inhibition in test [2] was 9%.

`COc1ccc2c(c1)c(Cc1nc(-c3ccc(F)cc3)cs1)c(C)n2C(=O)c1ccc(Cl)cc1`: the inhibition in test [5] was found to be 28%.

As for `COc1ccc2c(c1)c(Cc1nc(-c3ccc(-c4ccccc4)cc3)cs1)c(C)n2C(=O)c1ccc(Cl)cc1`, the inhibition in test [1] came out at 21%; in test [5] it was 13%.

With `COc1ccc2c(c1)c(Cc1nc(C(C)C)cs1)c(C)n2C(=O)c1ccc(Cl)cc1`, the results for the inhibition in test [1] and in test [2] were 1% and 36%, respectively.

For the compound `COc1ccc2c(c1)c(Cc1nc(-c3ccc(Cl)cc3)cs1)c(C)n2C(=O)c1ccc(Cl)cc1`, the inhibition in test [5] was 16%.

In test [3], `COc1ccc2c(c1)c(Cc1nc(-c3ccc(C(=O)O)cc3)cs1)c(C)n2C(=O)c1ccc(Cl)cc1` returned an IC50 of 0.12 µM. For the same compound, the inhibition in test [2] was found to be 35%.

As to `Cc1c(Cc2nc(-c3ccc(Br)cc3)cs2)c2cc(Br)ccc2n1C(=O)c1ccc(Br)cc1`, the inhibition in test [1] amounted to 7%; in test [2], 13%.

In the case of `CCN(CC)c1ccc(-c2csc(Cc3c(C)n(C(=O)c4ccc(Cl)cc4)c4ccc(OC)cc34)n2)cc1`, the inhibition in test [1] came to 36%; in test [2], 23%.

`COc1ccc2c(c1)c(Cc1nc(-c3ccc([N+](=O)[O-])cc3)cs1)c(C)n2C(=O)c1ccc(Cl)cc1`: in test [5], the inhibition came to 17%.

In the case of `COc1ccc2c(c1)c(Cc1csc(-c3cccnc3)n1)c(C)n2C(=O)c1ccc(Cl)cc1`, the inhibition amounted to 20% in test [1] and 47% in test [2].

In turn, `COc1ccc2c(c1)c(Cc1nc(-c3ccc(Cl)cc3)cs1)c(C)n2C(=O)c1ccc(Br)cc1` had a half-maximal inhibitory concentration (IC50) in test [3] of 0.007 µM. For the same compound, the inhibition in test [2] was determined as 2%.

Consider `COc1ccc2c(c1)c(Cc1nc(-c3ccc(C(=O)O)cc3)cs1)c(C)n2C(=O)c1ccc(Br)cc1`, for which the inhibition in test [1] was 10%; in test [2], 40%.

As to `Cc1c(Cc2nc(-c3ccc(Cl)cc3)cs2)c2cc(Br)ccc2n1C(=O)c1ccc(Br)cc1`, the figures for the inhibition in test [1] and in test [2] were 9% and 4%, respectively.

With `COc1ccc2c(c1)c(Cc1nc(C(=O)O)cs1)c(C)n2C(=O)c1ccc(Cl)cc1`, the inhibition in test [1] came to 2%; in test [2] it was 6%.

Turning to `Cc1c(Cc2nc(-c3ccc([N+](=O)[O-])cc3)cs2)c2cc(Br)ccc2n1C(=O)c1ccc(Br)cc1`, the inhibition in test [1] was 7%; in test [2] it was 1%.

As to `COc1ccc2c(c1)c(Cc1csc(-c3ccccc3Cl)n1)c(C)n2C(=O)c1ccc(Cl)cc1`, the inhibition in test [1] was determined as 42%; in test [2], 24%.

Consider `Cc1c(Cc2nc(-c3ccc(Cl)cc3)cs2)c2cc(F)ccc2n1C(=O)c1ccc(Br)cc1`, for which the inhibition in test [1] was found to be 37%; in test [2] it was 7%.

For `COc1ccc2c(c1)c(Cc1nc(-c3ccc(Br)cc3)cs1)c(C)n2C(=O)c1ccc(Cl)cc1`, the inhibition in test [5] was determined as 27%.

For `COc1ccc2c(c1)c(Cc1csc(NC(=O)CN)n1)c(C)n2C(=O)c1ccc(Cl)cc1`, the results for the inhibition in test [1] and in test [2] were 4% and 27%, respectively.

For `COc1ccc2c(c1)c(Cc1nc(C34C[C@H]5C[C@@H](C3)C[C@@H](C4)C5)cs1)c(C)n2C(=O)c1ccc(Cl)cc1`, the inhibition amounted to 6% in test [1] and 13% in test [2].

Consider `COc1ccc2c(c1)c(Cc1csc(NC(=O)c3ccncc3)n1)c(C)n2C(=O)c1ccc(Cl)cc1`, for which the inhibition amounted to 45% in test [1] and 0% in test [2].

For the compound `COc1ccc2c(c1)c(Cc1csc(-c3ccncc3)n1)c(C)n2C(=O)c1ccc(Cl)cc1`, the inhibition in test [1] was found to be 75%; in test [2] it was 57%.

With `COc1ccc2c(c1)c(Cc1csc(-c3ccc(Cl)cc3)n1)c(C)n2C(=O)c1ccc(Cl)cc1`, the inhibition in test [1] was found to be 16%; in test [2], 18%.

On to `Cc1c(Cc2nc(-c3ccc(Br)cc3)cs2)c2cc(F)ccc2n1C(=O)c1ccc(Br)cc1`, for which the inhibition was 25% in test [1] and 0% in test [2].

`CCOC(=O)c1csc(Cc2c(C)n(C(=O)c3ccc(Cl)cc3)c3ccc(OC)cc23)n1`: the inhibition was 40% in test [1] and 1% in test [2].

Consider `Cc1c(Cc2nc(-c3ccc([N+](=O)[O-])cc3)cs2)c2cc(F)ccc2n1C(=O)c1ccc(Br)cc1`, for which the results for the inhibition in test [1] and in test [2] were 40% and 1%, respectively.

As to `COc1ccc2c(c1)c(Cc1nc(-c3cccc(Br)c3)cs1)c(C)n2C(=O)c1ccc(Cl)cc1`, the inhibition in test [2] turned out to be 18%.
